Laboratory results as given in article PMC12077799, “Fragment-based drug discovery for transthyretin kinetic stabilisers using a novel capillary zone electrophoresis method” (PLOS One, 2025).
Read-outs that look alike come from different tables or passages of the source. Values belong to the molecule of their own block, whether it stands above or below them.

What was measured:
[1] = molecular target: T1, Human transthyretin (TTR) thyroxine binding sites (Homo sapiens, UniProt P02766); assay: TTR CZE Free Probe Peak Height Restoration (FPPHR) assay, 8-ANS displacement; conditions: for FPPHR % at 50 μM: compound 50 μM in Running Buffer; for FPPHR % at 50 μM / FPPHR % at 100 μM / FPPHR % tested at 10 µM: 10% minimum for a binder; for change of free 8-ANS peak height with compound in the Running Buffer: in words, concentrations (e.g. Tafamidis 10 µM, Diphenylamine 250 μM, Verapamil 300 µM, Acetazolamide 500 µM); for FPPHR % at 100 μM: compound 100 μM in Running Buffer; for FPPHR % at 300 μM ± SD (N = 3): fragment 300 μM in Running Buffer, injected 30 μM 8-ANS / 20 μM TTR, hit cut-off 10%; for FPPHR % tested at 10 µM: compound 10 µM in Running Buffer
T1 construct: purchased SCIPAC (Sittingbourne, Kent, UK) P171-1
Procedure: CZE assays development and fragment screening were performed on a Beckman P/ACE MDQ capillary electrophoresis system (Beckman Coulter Inc., Brea, CA) operated by 32 Karat™ software. All capillaries (Polymicro Technologies, Phoenix, AZ) used were internally coated with polyvinyl alcohol and of around 30 cm in length, 75 microns in internal diameter. Capillary temperature was maintained at 20 °C by recirculating fluorinated fluid coolant during electrophoresis. Sample trays and buffer trays temperature were maintained at 4°C and ambient respectively. For every electrophoretic run, the capillary was pressure rinsed and prefilled with electrophoresis buffer also known as background electrolyte (termed as Running Buffer hereafter) before injection. After each electrophoretic run, the capillary was rinsed with Running Buffer and H2O by pressure (20 psi for 1 minute). Three Running Buffers (RB), A: 20 mM Tris pH 7.5, 1 mM KCl, 1.62 mM NaCl; B: 20 mM HEPES pH 7.0, 2 mM CaCl2 and C: 20 mM HEPES pH 7.0, 2 mM CaCl2, 1% DMSO were used. All CE traces were analysed by 32Karat™ Software with a built-in automatic peak integration algorithm.
Control 1 Inject Buffer (IB) containing 30 μM 8-ANS was prepared by mixing 1 μL of 3 mM 8-ANS DMSO stock with 99 μL of Running Buffer B in a 0.2 mL PCR tube. Control 2 Inject Buffer was prepared by mixing 1μL of 3 mM 8-ANS DMSO stock with 20 μL of 100 μM tetrameric TTR stock in Running Buffer B and 79 μL of Running Buffer B. The final concentrations (f/c) were 8-ANS 30 μM, TTR 20 μM and 1% DMSO v/v.
The maximum Free Probe Peak Height (Control 1 Peak Height) was determined by Outlet Injection (see Fig 1) of Control 1 with an injection pressure of 0.5 psi for 5 seconds (equivalent to ≈ 20–30 nL). An identical injection of Control 2 provides the minimum Free Probe Peak Height (Control 2 Peak Height) enabling calculation of % of bound and unbound, i.e., free 8-ANS. To determine the 8-ANS peak height in Control 1 and Control 2, the capillary was prefilled with Buffer C and electrophoresis carried out at 10 kV (Normal Polarity, Fig 1) with UV monitoring at 230 nm. For displacement analysis, ligand DMSO stock was diluted in Buffer B and used to fill the capillary as the Running Buffer. Electrophoresis commenced after injection of Control 2, thus the injected 8-ANS-TTR complex migrates inside a capillary filled with the test ligand. The observed 8-ANS peak height is defined as Sample Peak Height and the displaced 8-ANS can be calculated as:
\% of Free Probe Peak Height Restoration= Sample Peak Height−Control 2 Peak Height/Control 1 Peak Height−Control 2 Peak Height

[2] = molecular target: T2, Human transthyretin (TTR) (Homo sapiens, UniProt P02766); assay: Co-crystallisation of TTR-ligand complex, X-ray hit confirmation; format: binding; conditions: for ligand electron density, binding sites occupied in co-crystal structure: in words; for Confirmed by X-ray: fragment seen in ligand-omitted difference density at >= 2σ in one or both binding sites, full or partial density
T2 construct: purchased SCIPAC (Sittingbourne, Kent, UK) P171-1
Procedure: Crystals were grown by vapor diffusion using a published crystallisation cocktail (100 mM HEPES pH 7.5, 200 mM CaCl2, 28% v/v PEG400) at 21 °C [29]. The hanging drop contained 1 μL of crystallisation cocktail, 1 μL of diluted ligand and 1 μL of TTR protein solution (85 μM). […] Crystals were harvested and flash cooled in a N2 cryostream or dipped into liquid ethane without cryoprotectant. Data was collected at Diamond Light Source (Oxon, UK) beamline I24, I04 or I04-1 (Pilatus 6M or ADSC Q315) or the European Synchrotron Radiation Facility (ESRF, Grenoble, France) beamline ID29 (Pilatus 6M-F) or in-house (Bruker X8 Diffractometer with APEXII CCD detector). Crystal unit cell was initially indexed by software MOSFLM [30] and LABELIT [31] within the EDNA [32] automatic data processing workflow. Diffraction image integration was performed by XDS [33] and reflection intensities were scaled by SCALA [34] or by PROTEUM2 if collected in-house. Phases were obtained by molecular replacement method using PHASER [35], 1DVQ from the Protein Data Bank (PDB) was used as the search model. Atomic positions of the initial model were refined by REFMAC5 [36]. Model building and ligand fitting was completed using COOT [37]. Model graphics were generated using CCP4MG [38]. Crystallographic statistics of all structures can be found in S4 Table.

[3] = molecular target: T3, TTR in undiluted normal human reference plasma (Homo sapiens, UniProt P02766); assay: 125I-T4 displacement assay in neat normal human plasma; format: binding; conditions: for IC50: neat normal human plasma, 4-parameter logistic fit
T3 construct: The TTR in plasma was immunoprecipitated by sheep anti-human prealbumin polyclonal antibody; tissue Precision Biologic Inc., Nova Scotia, Canada
Source text: The assay was adapted from one described previously. Briefly, test ligand and ^125I-T4 (Perkin Elmer Inc., Waltham, MA) were mixed with undiluted normal human reference plasma (Precision Biologic Inc., Nova Scotia, Canada). The TTR in plasma was immunoprecipitated by sheep anti-human prealbumin polyclonal antibody (The Binding Site Group Ltd., Birmingham, UK). The immunoprecipitate was washed with buffer and their radioactivity measured with a 2470 WIZARD automatic gamma counter (Perkin Elmer Inc., Waltham, MA). […] Percentage of total radioligand binding for samples of different ligand concentration was then calculated as follows: […]
To calculate IC50 values, percentage of total radioligand binding at different concentration points were entered in SigmaPlot™ 11.0. Titration curves were done in triplicates with a minimum of 5 data points fitted by 4-Parameter Logistic Function.

TTR = molecular target: T4, TTR (Homo sapiens, UniProt P02766); assay: Isothermal titration calorimetry (ITC); format: binding; conditions: for Kd: 25 °C, PBS pH 7.8, 3% DMSO
T4 construct: purchased SCIPAC (Sittingbourne, Kent, UK) P171-1
Procedure: All ITC experiments were conducted on an iTC200 calorimeter (GE Healthcare), and the settings were 25 °C, stir at 1000 RPM, 1–2 μL injection spaced with 100–150 seconds, reference power: 6 μcal/sec. Isotherms were fitted using ORIGIN 7 software (OriginLab, MA, USA). To prepare TTR ITC protein solution (5 mL), purified and freeze-dried human TTR was weighted and dissolved in 310 μL of pure water. The reconstituted protein solution was then desalted by spin column (Bio-Rad, Bio-Gel P6) and the eluted volume was transferred to a 15mL falcon tube. The protein solution was further diluted with 10x Phosphate Buffered Saline (PBS, 500 μL), DMSO (150 μL) and water, (f/c: 4.3 mM Na2HPO4, 137 mM NaCl, 2.7 mM KCl, 1.47 mM KH2PO4, 3% DMSO v/v, TTR 19.35–25 μM, pH 7.8). UV A260/280 was measured to obtain the actual protein concentration using a calculated extinction coefficient of 18450 M^-1 cm^-1. To prepare ligand ITC solution (1 mL), 30 μL of ligand stock in DMSO was diluted with 10x PBS (100 μL) and water (f/c: 4.3 mM Na2HPO4, 137 mM NaCl, 2.7 mM KCl, 1.47 mM KH2PO4, 3% DMSO v/v, Ligand 280–600 μM, pH 7.8).

[4] = read-out: Mean 125I-T4 IC50 ± SD (N = 3)
[5] = N = number of non-hydrogen atoms

FPPHR % at 50 μM [1]: 1.88%
SMILES: CN(C)Cc1c[nH]c2ncccc12 [SFL001519]

FPPHR % at 100 μM [1]: 4.78%
SMILES: N#Cc1ncnc2nc[nH]c12 [SFL001640]

FPPHR % at 50 μM [1]: 24.84%
SMILES: Clc1n[nH]c2ccccc12 [Compound A00014954]

FPPHR % at 50 μM [1]: 3.73%
SMILES: c1cc2cc[nH]c2cn1 [Compound A00010944]

IC50 [3, 4]: 20.4 ± 4.13 µM
Kd (TTR; read-out: ITC Kd1 ± SD (N = 3)): 0.0497 µM
Kd (TTR; read-out: ITC Kd2 ± SD (N = 3)): 0.331 µM
Kd1 LE (Ligand Efficiency, ΔG/N) (TTR; [5]): 0.59 kcal/mol
Kd2 LE (Ligand Efficiency, ΔG/N) (TTR; [5]): 0.52 kcal/mol
SMILES: Cc1n[nH]c(Cl)c1-c1cccc2cccnc12 [SEL101928]

FPPHR % at 50 μM [1]: 16.40%
SMILES: COC(=O)c1c[nH]c2ccccc12 [Compound A00010562]

FPPHR % at 50 μM [1]: 25.63%
SMILES: Cc1[nH]ncc1-c1ccccc1 [Compound 12T-0222]

FPPHR % at 100 μM [1]: 6.22%
SMILES: c1cncc(-c2nc3ccccc3[nH]2)c1 [SFL001465]

FPPHR % at 50 μM [1]: 14.93%
SMILES: c1ccc(-c2cn[nH]c2)cc1 [Compound Z1013760930]

FPPHR % tested at 10 µM [1]: 10.85% tested at 10 µM
SMILES: c1ccc2c(-c3nnc4cnccn34)ccnc2c1 [Compound 86471824]

Confirmed by X-ray [2]: Yes 9H7M
FPPHR % tested at 10 µM [1]: 23.20% tested at 10 µM
IC50 [3, 4]: 105 ± 16.8 µM
SMILES: Nc1nc(-c2cccc3cccnc23)c2cn[nH]c2n1 [Compound 96299361]

change of free 8-ANS peak height with compound in the Running Buffer [1]: changed minimally
SMILES: Nc1ccccc1S(N)(=O)=O [2-Aminobenzenesulphonamide, reference compound]

Confirmed by X-ray [2]: Yes 9H7J
IC50 [3, 4]: 488 ± 107 µM
SMILES: Cc1n[nH]c(N)c1-c1ccccc1 [SFL001561]

FPPHR % at 50 μM [1]: 13.28%
SMILES: Nc1[nH]ncc1-c1ccccc1 [OR1969]

Confirmed by X-ray [2]: Yes 1 Site, Partial, 9H7A
ligand electron density, binding sites occupied in co-crystal structure [2]: only observed in one site
FPPHR % at 300 μM ± SD (N = 3) [1]: 12.18 ± 6.63 (N = 4) %
125I-T4 displacement at maximal concentration ([3]; 14.3mM, no plateau reached): ≈ 60%
IC50 [3]: 8880 ± 3670 µM
SMILES: NS(=O)(=O)c1cc(Cl)cc(Cl)c1 [SFL000006, 3,5-Dichlorobenzenesulphonamide]

FPPHR % at 50 μM [1]: 7.42%
SMILES: Cc1nn(C)c(N)c1-c1ccccc1 [SFL001562]

FPPHR % at 100 μM [1]: 12.12%
SMILES: c1ccc2[nH]ncc2c1 [SFL000101]

The next lines start with the molecule.

SMILES: CC(=O)Nc1nnc(S(N)(=O)=O)s1 [Acetazolamide, reference compound]
change of free 8-ANS peak height with compound in the Running Buffer [1]: changed minimally

SMILES: Nc1[nH]ncc1-c1ccc(Cl)cc1 [Compound 242212]
FPPHR % at 50 μM [1]: 25.65%

SMILES: c1ccc2[nH]ccc2c1 [SFL001004]
FPPHR % at 100 μM [1]: 17.18%

SMILES: O=C(O)c1ccccc1Nc1ccccc1 [N-Phenylanthranilic Acid, reference compound]
ligand electron density, binding sites occupied in co-crystal structure [2]: occupied both sites
IC50 [3]: 180 ± 61.8 µM

SMILES: N#Cc1c[nH]c2ccccc12 [SFL000013]
Confirmed by X-ray [2]: Yes 2 Sites, Full, 9H7G
FPPHR % at 50 μM [1]: 18.13%
FPPHR % at 100 μM [1]: 21.53%
FPPHR % at 300 μM ± SD (N = 3) [1]: 23.08 ± 6.08%

SMILES: Clc1cc2cc[nH]c2cn1 [Compound 217869]
FPPHR % at 50 μM [1]: 12.83%

SMILES: Clc1ccc2c(-c3cc[nH]n3)ccnc2c1 [Compound 63633004]
FPPHR % tested at 10 µM [1]: 22.71% tested at 10 µM

SMILES: c1ncc2[nH]cnc2n1 [SFL001639]
FPPHR % at 100 μM [1]: 5.29%

SMILES: COc1ccc(CCN(C)CCCC(C#N)(c2ccc(OC)c(OC)c2)C(C)C)cc1OC (centres unmarked) [Verapamil, reference compound]
change of free 8-ANS peak height with compound in the Running Buffer [1]: changed minimally

SMILES: c1cnc2[nH]ccc2c1 [Compound 242506]
FPPHR % at 50 μM [1]: 7.85%

SMILES: O=C(O)c1ccc2nc(-c3cc(Cl)cc(Cl)c3)oc2c1 [Tafamidis, reference compound]
change of free 8-ANS peak height with compound in the Running Buffer [1]: significant free 8-ANS peak height increase

SMILES: c1ccc2nc(-c3cn[nH]c3)ccc2c1 [SFL001536]
FPPHR % at 100 μM [1]: 18.42%

SMILES: N[C@@H](Cc1cc(I)c(Oc2cc(I)c(O)c(I)c2)c(I)c1)C(=O)O [Thyroxine T4, reference compound]
change of free 8-ANS peak height with compound in the Running Buffer [1]: significant free 8-ANS peak height increase

SMILES: c1cc2[nH]ccc2cn1 [Compound 218458]
FPPHR % at 50 μM [1]: 5.03%

SMILES: c1ccc(Nc2ccccc2)cc1 [Diphenylamine, reference compound]
change of free 8-ANS peak height with compound in the Running Buffer [1]: significant free 8-ANS peak height increase

SMILES: Nc1cc(Cl)c(O)c(Cl)c1 [4-Amino-2,6-Dichlorophenol, reference compound]
change of free 8-ANS peak height with compound in the Running Buffer [1]: significant free 8-ANS peak height increase

SMILES: Nc1cc(Cl)cc(Cl)c1 [3,5-Dichloroaniline, reference compound]
ligand electron density, binding sites occupied in co-crystal structure [2]: only observed in one site
change of free 8-ANS peak height with compound in the Running Buffer [1]: significant free 8-ANS peak height increase
IC50 [3]: 802 ± 319 µM
125I-T4 displacement at plateau ([3]; neat plasma, exemplary curve): 60%
total radioligand binding at plateau ([3]; neat plasma, exemplary curve): around 40%
